Reference: patent US20260234139A1, “PGDH INHIBITORS AND METHODS OF MAKING AND USING” (Epirium Bio Inc., priority 2023, published 2026)

Assays:
15-PGDH/HPGD = target: T1, 15-PGDH/HPGD (Homo sapiens, UniProt P15428); assay: hPGDH inhibitor screening biochemical assay; conditions: 10 nM enzyme, 15 μM Prostaglandin E2, 0.25 mM NAD, fluorescence ex/em 340/485 nm
T1 construct: purchased R&D System 5660-DH
T1 sequence (P15428 1-266): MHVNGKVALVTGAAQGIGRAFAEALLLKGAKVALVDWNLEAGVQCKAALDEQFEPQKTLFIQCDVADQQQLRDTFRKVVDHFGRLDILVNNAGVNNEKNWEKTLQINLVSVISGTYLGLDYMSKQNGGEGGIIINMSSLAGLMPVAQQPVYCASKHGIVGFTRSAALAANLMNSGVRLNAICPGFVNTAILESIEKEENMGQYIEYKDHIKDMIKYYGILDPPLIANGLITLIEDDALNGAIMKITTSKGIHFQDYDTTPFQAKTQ
Outline: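 Recombinant 15-PGDH (10 nM) preincubated with compound 10 min at 37° C, then 15 μM PGE2 and 0.25 mM NAD⁺ added for 10 min at room temperature in 50 mM Tris-HCl pH 7.5, 0.01% Tween 20. NADH fluorescence at ex/em 340/485 nm; 10-point dose response.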

A549 = A549 EC50 (cell assay, method not described); type: cell-based; conditions: Homo sapiens, A549, A549

Compound	IC50 (15-PGDH/HPGD)	EC50 (A549)
COCCNC(=O)c1ccc(-n2ncc3cc([C@@H](O)COC4CCC4)cnc32)cc1 [Compound 118A]	< 0.1 µM	< 0.1 µM
O[C@@H](COC1CCC1)c1cnc2c(cnn2-c2ccc(N3CCOCC3)cc2)c1 [Compound 76A]	0.1 to 1 µM	≥ 1 µM
CN(C)C(=O)c1ccc(-n2ncc3cc([C@@H](O)COC4CCC4)cnc32)cc1 [Compound 80B]	≥ 1 µM	≥ 1 µM
CN(C)C(=O)c1cccc(-n2ncc3cc([C@@H](O)COC4CCC4)cnc32)c1 [Compound 111A]	< 0.1 µM	0.1 to 1 µM
CCOC1([C@@H](O)c2cnc3c(cnn3-c3ccc4nc(N5CCOCC5)nn4c3)c2)CC1 [Compound 62B]	0.1 to 1 µM	≥ 1 µM
CC(C)OC[C@@H](O)c1cnc2c(ccn2-c2cccc(-c3nnc[nH]3)c2)n1 [Compound 20A]	< 0.1 µM	< 0.1 µM
CC(C)OC[C@@H](O)c1cnc2c(cnn2-c2ccc(CCCC(=O)O)c(F)c2)c1 [Compound 77A]	< 0.1 µM	< 0.1 µM
CCOC1([C@H](O)c2cnc3c(cnn3-c3cccc(-c4nnc[nH]4)c3)c2)CC1 [Compound 63A]	≥ 1 µM	≥ 1 µM
CNC(=O)c1cccc(-n2ncc3cc([C@@H](O)COC4CCC4)cnc32)c1 [Compound 110A]	< 0.1 µM	< 0.1 µM
O[C@@H](c1cnc2c(ccn2-c2cc(Cl)cc(-c3nnc[nH]3)c2)c1)C1CCC(F)(F)CC1 [Compound 12A]	< 0.1 µM	≥ 1 µM
CC(C)OC[C@H](O)c1cnc2c(cnn2-c2ccc(C(=O)O)cc2)c1 [Compound 48A]	< 0.1 µM	0.1 to 1 µM
O=C(O)c1ccc(-n2ncc3cc([C@@H](O)COC4CCC4)cnc32)cc1F [Compound 94A]	< 0.1 µM	< 0.1 µM
O[C@@H](c1cnc2c(cnn2-c2cccc(-c3nnc[nH]3)c2)c1)C1CCOCC1 [Compound 52B]	< 0.1 µM	< 0.1 µM
O=C(O)c1ccc(-n2ncc3cc([C@@H](O)COCC4CC4)ccc32)cc1 [Compound 114A]	0.1 to 1 µM	≥ 1 µM
CSc1ccc(-n2ncc3cc([C@@H](O)COC4CCC4)cnc32)cc1 [Compound 119A]	< 0.1 µM	0.1 to 1 µM
CSc1cccc(-n2ncc3cc([C@@H](O)COC4CCC4)cnc32)c1 [Compound 122A]	< 0.1 µM	≥ 1 µM
O[C@@H](COC1CCC1)c1cnc2c(ccn2-c2cccc(-c3nnc[nH]3)c2)n1 [Compound 30B]	< 0.1 µM	< 0.1 µM
O=C(O)c1ccc(-n2ccc3nc([C@@H](O)COCC4CC4)cnc32)cc1 [Compound 112A]	< 0.1 µM	≥ 1 µM
CCOC1([C@@H](O)c2cnc3c(cnn3-c3cccc(-c4nnc[nH]4)c3)c2)CC1 [Compound 63B]	< 0.1 µM	0.1 to 1 µM
CCCC(F)(F)[C@H](O)c1cnc2c(ccn2-c2cccc(-c3nnc[nH]3)c2)n1 [Compound 35B]	0.1 to 1 µM	≥ 1 µM
O[C@H](COC1CC1)c1cnc2c(cnn2-c2cccc(-c3nnc[nH]3)c2)c1 [Compound 37B]	< 0.1 µM	< 0.1 µM
CN(C)C(=O)c1ccc(-n2ncc3cc([C@H](O)COC4CCC4)cnc32)cc1 [Compound 80A]	< 0.1 µM	< 0.1 µM
COC1([C@@H](O)c2cnc3c(cnn3-c3cccc(-c4nnc[nH]4)c3)c2)CCC1 [Compound 65A]	0.1 to 1 µM	0.1 to 1 µM

Compound	IC50 (15-PGDH/HPGD)	EC50 (A549)
CCCC[C@@H](O)c1cnc2c(ccn2-c2cccc(-c3nnc[nH]3)c2)n1 [Compound 2B]	< 0.1 µM	0.1 to 1 µM
O[C@@H](c1cnc2c(cnn2-c2cccc(-c3nnc[nH]3)c2)c1)C1(OCC(F)F)CC1 [Compound 73B]	≥ 1 µM	≥ 1 µM
CC(C)OCC[C@@H](O)c1cnc2c(cnn2-c2cccc(-c3nnc[nH]3)c2)c1 [Compound 44A]	< 0.1 µM	< 0.1 µM
O[C@@H](COC1CCC1)c1cnc2c(cnn2-c2ccc(N3CCCC3)cc2)c1 [Compound 75B]	≥ 1 µM	≥ 1 µM
CN(C)C[C@@H](O)c1cnc2c(cnn2-c2cccc(-c3nnc[nH]3)c2)c1 [Compound 25B]	0.1 to 1 µM	≥ 1 µM
O[C@H](COC1CCC1)c1cnc2c(cnn2-c2ccc(N3CCOCC3)cc2)c1 [Compound 76B]	≥ 1 µM	≥ 1 µM
C[S+]([O-])c1cccc(-n2ncc3cc([C@@H](O)COC4CCC4)cnc32)c1 (some centres unmarked) [Compound 125A]	0.1 to 1 µM	0.1 to 1 µM
CCCC[C@H](O)c1cnc2c(ccn2-c2cccc(-c3nnc[nH]3)c2)n1 [Compound 2A]	< 0.1 µM	< 0.1 µM
CSc1cccc(-n2ncc3cc([C@H](O)COC4CCC4)cnc32)c1 [Compound 122B]	≥ 1 µM	≥ 1 µM
O[C@H](COC1CCC1)c1cnc2c(cnn2-c2cncc(-c3nnc[nH]3)c2)c1 [Compound 117B]	< 0.1 µM	< 0.1 µM
O[C@@H](COC1CCC1)c1cnc2c(cnn2-c2cncc(-c3nnc[nH]3)c2)c1 [Compound 117A]	< 0.1 µM	< 0.1 µM
O=C(NC[C@H](O)c1cnc2c(cnn2-c2cccc(-c3nnc[nH]3)c2)c1)C1CC1 [Compound 39A]	≥ 1 µM	≥ 1 µM
CC(C)(O)[C@@H](O)c1cnc2c(cnn2-c2cccc(-c3nnc[nH]3)c2)c1 [Compound 33B, (S)-1-(1-(3-(4H-1,2,4-triazol-3-yl)phenyl)-1H-pyrazolo[3,4-b]pyridin-5-yl)-2-methylpropane-1,2-diol]	0.1 to 1 µM	≥ 1 µM
Cc1nn(-c2ccc(C(=O)O)cc2)c2ncc([C@@H](O)COC3CCC3)cc12 [Compound 109A]	< 0.1 µM	≥ 1 µM
O=C(O)c1ccc(-n2ccc3nc([C@H](O)COC4CCC4)cnc32)cc1 [Compound 47B]	< 0.1 µM	< 0.1 µM
CC(C)(O)CC[C@@H](O)c1cnc2c(cnn2-c2cccc(-c3nnc[nH]3)c2)c1 [Compound 56B]	< 0.1 µM	0.1 to 1 µM
CNC(=O)c1ccc(-n2ncc3cc([C@@H](O)COC4CCC4)cnc32)cc1 [Compound 84B]	0.1 to 1 µM	≥ 1 µM
CCOC[C@H](O)c1cnc2c(cnn2-c2cccc(-c3nnc[nH]3)c2)c1 [Compound 23A]	< 0.1 µM	0.1 to 1 µM
O=C(O)c1ccc(-n2ncc3cc([C@H](O)COCC4CC4)cnc32)cc1 [Compound 107B]	< 0.1 µM	≥ 1 µM
O=C(NC[C@@H](O)c1cnc2c(cnn2-c2cccc(-c3nnc[nH]3)c2)c1)C1CC1 [Compound 39B]	0.1 to 1 µM	≥ 1 µM
CC(C)OC[C@H](O)c1cnc2c(cnn2-c2ccc(OCC(=O)O)c(F)c2)c1 [Compound 74B]	0.1 to 1 µM	≥ 1 µM
CC1(OC[C@H](O)c2cnc3c(cnn3-c3ccc(C(=O)O)cc3)c2)CC1 [Compound 92A]	< 0.1 µM	≥ 1 µM
CC(C)(O)CC[C@H](O)c1cnc2c(cnn2-c2cccc(-c3nnc[nH]3)c2)c1 [Compound 56A]	< 0.1 µM	0.1 to 1 µM
